# Data published in patent US11252962B2, “Cyclopropylpyridyl group-containing benzimidazole compound or salt thereof, agricultural and horticultural insecticide comprising the compound or the salt, and method for using the insecticide” (NIHON NOHYAKU CO., LTD., priority 2017, dated 2022).
# Legend:
# [1] = system: Myzus persicae; experiment: Test for control efficacy on Myzus persicae; assay type: in vivo; conditions: 144 h, foliar application to potted Chinese cabbage, 6 days after application, read-out: control efficacy (control rate), activity level
# Text: Test for Control Efficacy on Myzus persicae Chinese cabbage plants were planted in plastic pots (diameter: 8 cm, height: 8 cm), Green peach aphids (M. persicae) were propagated on the plants, and the number of surviving Green peach aphids in each pot was counted. […] The agrochemical dispersions were applied to the foliage of the potted Chinese cabbage plants. After the plants were air-dried, the pots were kept in a greenhouse. At 6 days after the foliar application, the number of surviving Green peach aphids on the Chinese cabbage plant in each pot was counted, the control rate was calculated according to the formula shown below, and the control efficacy was evaluated according to the criteria shown below. Control rate=100−{(T×Ca)/(Ta×C)}×100 [Math. 1] Ta: the number of survivors before the foliar application in a treatment plot T: the number of survivors after the foliar application in a treatment plot Ca: the number of survivors before the foliar application in a non-treatment plot C: the number of survivors after the foliar application in a non-treatment plot Criteria A: the control rate is 100%. […] C: the control rate is 80 to 89%.
# [2] = system: Laodelphax striatellus; experiment: Insecticidal test on Laodelphax striatellus; assay type: in vivo; conditions: 192 h, rice seedlings dipped 30 seconds, 3rd-instar larvae, 8 days after inoculation, read-out: insecticidal efficacy (corrected mortality rate), activity level
# Description: Insecticidal Test on Laodelphax striatellus
# Rice plant seedlings (variety: Nihonbare) were dipped in the agrochemical dispersions for 30 seconds. After air-dried, each seedling was put into a separate glass test tube and inoculated with ten 3rd-instar larvae of L. striatellus, and then the glass test tubes were capped with cotton plugs. At 8 days after the inoculation, the numbers of surviving larvae and dead larvae were counted, the corrected mortality rate was calculated according to the formula shown below, and the insecticidal efficacy was evaluated according to the criteria shown below. Corrected mortality rate (%)=100×(Survival rate in a non-treatment plot−Survival rate in a treatment plot)/Survival rate in a non-treatment plot [Math. 2] Corrected Mortality Rate A: the corrected mortality rate is 100%.
# [3] = system: Plutella xylostella; experiment: Insecticidal test on Plutella xylostella; assay type: in vivo; conditions: 144 h, Chinese cabbage seedlings with laid eggs dipped about 30 seconds, 6 days after dip treatment, 25° C., read-out: insecticidal efficacy (corrected mortality rate), activity level
# Description: Insecticidal Test on Plutella xylostella
# Adults of P. xylostella were released onto Chinese cabbage seedlings and allowed to lay eggs thereon. […] After air-dried, the seedlings were kept in a thermostatic chamber at 25° C. […] This test was conducted in triplicate using 10 adults of P. xylostella per plot. Corrected mortality rate (%)=100×(Number of hatched larvae in a non-treatment plot−Number of hatched larvae in a treatment plot)/Number of hatched larvae in a non-treatment plot [Math. 3]
# [4] = system: Rhipicephalus sanguineus; experiment: Parasiticidal test on Rhipicephalus sanguineus; assay type: in vivo; conditions: treated filter paper, nymphs, 27° C., 48 hours after treatment, read-out: corrected mortality rate
# Description: Parasiticidal Test on Rhipicephalus sanguineus
# The diluted formulations were applied dropwise onto filter paper pieces placed in separate vials. The filter paper pieces were dried. Ten nymphs of R. sanguineus were placed into each vial and maintained at 27° C. with 80% humidity under a 12L12D light-dark cycle (L: light time, D: dark time). At 48 hours after agrochemical treatment, the numbers of surviving and dead nymphs were counted, and the corrected mortality rate was calculated according to the formula of Math. 4.
# [5] = system: Haemonchus contortus; experiment: Parasiticidal test on Haemonchus contortus (larval motility); conditions: 1st-instar larvae, 96-well plates, 27° C., 96 hours, read-out: percent inhibition in motility
# Text: Parasiticidal Test on Haemonchus contortus
# Eggs of H. contortus were collected from feces of a goat and hatched in water. […] Percent inhibition in motility (%)=100×(Average motility in negative control wells−Average motility in treated wells)/Average motility in negative control wells [Math. 5]
# [6] = system: Ctenocephalides felis; experiment: Parasiticidal test on Ctenocephalides felis; assay type: in vivo; conditions: 50 ppm in bovine blood, adults, artificial feeding system 35° C., 24 hours after treatment, read-out: corrected mortality rate
# Description: Parasiticidal Test on Ctenocephalides felis
# Newly-emerged adults of C. felis were placed into test cages (10 adults per test cage), and the test cages were maintained at 35° C. in an artificial feeding system. At 24 hours after agrochemical treatment, the numbers of surviving and dead adults were counted, and the corrected mortality rate was calculated according to the formula shown below. Corrected mortality rate (%)=100×(Survival rate in a negative control group−Survival rate in a treatment group)/Survival rate in a negative control group [Math.
Compound,pest or weed control at 500 ppm [1],mortality at 500 ppm [2],mortality at 500 ppm [3],mortality at 100 ppm [4],inhibition at 100 ppm [5],mortality at 50 ppm [6]
"CCSc1cc(C2CC2)cnc1-c1nc2cc(SC(F)(F)F)ccc2n1C [Compound 1-1, 2-(3-ethylthio-5-cyclopropylpyridin-2-yl)-1-methyl-5-(trifluoromethylthio)benzimidazole]",100%,100%,100%,,,
"CC[S+]([O-])c1cc(C2CC2)cnc1-c1nc2cc(SC(F)(F)F)ccc2n1C (stereo not drawn) [Compound 1-2, 2-(3-ethylsulfinyl-5-cyclopropylpyridin-2-yl)-1-methyl-5-(trifluoromethylthio)benzimidazole]",100%,100%,100%,,,
"CCS(=O)(=O)c1cc(C2CC2)cnc1-c1nc2cc(SC(F)(F)F)ccc2n1C [Compound 1-3, 2-(3-ethylsulfonyl-5-cyclopropylpyridin-2-yl)-1-methyl-5-(trifluoromethylthio)benzimidazole]",100%,100%,100%,≥ 90%,≥ 50%,≥ 90%
"CCS(=O)(=O)c1cc(C2CC2)cnc1-c1nc2cc([S+]([O-])C(F)(F)F)ccc2n1C (stereo not drawn) [Compound 1-4, 2-(3-ethylsulfonyl-5-cyclopropylpyridin-2-yl)-1-methyl-5-(trifluoromethylsulfinyl)benzimidazole]",100%,100%,100%,≥ 90%,≥ 50%,≥ 90%
"CCS(=O)(=O)c1cc(C2CC2)cnc1-c1nc2cc(S(=O)(=O)C(F)(F)F)ccc2n1C [Compound 1-5, 2-(3-ethylsulfonyl-5-cyclopropylpyridin-2-yl)-1-methyl-5-(trifluoromethylsulfonyl)benzimidazole]",100%,100%,100%,,,
CCSc1cc(C2(C#N)CC2)cnc1-c1nc2cc(SC(F)(F)F)ccc2n1C [Compound 1-6],100%,100%,100%,,,
"CCS(=O)(=O)c1cc(C2CC2)cnc1-c1nc2cc(OC(F)(F)F)ccc2n1C [Compound 1-27, 2-(5-cyclopropyl-3-ethylsulfonyl-pyridin-2-yl)-1-methyl-5-trifluoromethoxybenzimidazole]",100%,100%,100%,,,
"CCSc1cc(C2(C#N)CC2)cnc1-c1nc2cc(OC(F)(F)F)ccc2n1C [Compound 1-83, 2-(5-(1-cyanocyclopropyl)-3-ethylthiopyridin-2-yl)-1-methyl-5-trifluoromethoxybenzimidazole]",100%,100%,100%,,,
"CCS(=O)(=O)c1cc(C2(C#N)CC2)cnc1-c1nc2cc(OC(F)(F)F)ccc2n1C [Compound 1-85, 2-(5-(1-cyanocyclopropyl)-3-ethylsulfonyl-pyridin-2-yl)-1-m ethyl-5-trifluoromethoxybenzimidazole]",100%,100%,100%,,,
